Values joined by “and” are separate entries in the source; they are usually repeats but may differ in a detail not shown here. Identical values can stand only once. Values belong to the compound of their own block, whether it stands above or below them.
How the values were obtained:
[1] = target: T1, DUBs and other proteins in HEK293 cells (Homo sapiens, UniProt Q53GS9); assay: In-cell proteome-wide competitive ABPP, HEK293: other DUBs and proteins; conditions: replicates A-C; for Log2 reporter intensity values: USP39: DMSO substract (FC); for Log2 reporter intensity values: USP39, DMSO subtracted
T1 sequence (Q53GS9 1-565): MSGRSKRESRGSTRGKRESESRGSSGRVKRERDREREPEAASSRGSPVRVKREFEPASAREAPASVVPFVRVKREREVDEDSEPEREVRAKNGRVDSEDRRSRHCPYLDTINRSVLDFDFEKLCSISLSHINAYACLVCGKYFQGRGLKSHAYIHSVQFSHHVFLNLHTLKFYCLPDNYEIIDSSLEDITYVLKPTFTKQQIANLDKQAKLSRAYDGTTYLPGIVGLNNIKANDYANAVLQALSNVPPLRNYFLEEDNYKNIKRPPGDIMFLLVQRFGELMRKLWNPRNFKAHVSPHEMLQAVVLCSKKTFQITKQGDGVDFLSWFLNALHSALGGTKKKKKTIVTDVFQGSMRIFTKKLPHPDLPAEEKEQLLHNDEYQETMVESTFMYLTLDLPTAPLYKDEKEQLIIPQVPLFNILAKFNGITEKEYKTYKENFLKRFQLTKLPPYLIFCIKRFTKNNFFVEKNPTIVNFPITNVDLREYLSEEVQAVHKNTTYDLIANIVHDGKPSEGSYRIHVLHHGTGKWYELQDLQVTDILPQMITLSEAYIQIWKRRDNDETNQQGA

[2] = target: T2, DUBs and other proteins in HEK293 cells (Homo sapiens, UniProt P51665); assay: as above; conditions: replicates A-C; for Log2 reporter intensity values: PSMD7: DMSO substract (FC); for Log2 reporter intensity values: PSMD7, DMSO subtracted
T2 sequence (P51665 1-324): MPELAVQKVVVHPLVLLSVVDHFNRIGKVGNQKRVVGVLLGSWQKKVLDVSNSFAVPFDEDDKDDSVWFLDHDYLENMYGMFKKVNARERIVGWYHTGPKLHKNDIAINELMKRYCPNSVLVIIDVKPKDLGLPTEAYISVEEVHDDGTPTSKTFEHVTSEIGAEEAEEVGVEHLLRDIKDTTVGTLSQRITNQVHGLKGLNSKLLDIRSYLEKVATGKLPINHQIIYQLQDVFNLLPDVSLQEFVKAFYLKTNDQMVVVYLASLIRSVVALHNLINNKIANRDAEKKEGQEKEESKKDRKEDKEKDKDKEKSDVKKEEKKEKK

[3] = target: DUBs and other proteins in HEK293 cells (Homo sapiens, UniProt Q9Y5T5); assay: as above; conditions: replicates A-C; for Log2 reporter intensity values: USP16: competition with ABP 2, DMSO substract (FC); for Log2 reporter intensity values: USP16, DMSO subtracted
[4] = target: DUBs and other proteins in HEK293 cells (Homo sapiens, UniProt Q93008); assay: as above; conditions: replicates A-C; for Log2 reporter intensity values: USP9X;USP9Y: DMSO substract (FC); for Log2 reporter intensity values: USP9X;USP9Y, DMSO subtracted
USP25 = target: T3, USP25 (Homo sapiens, UniProt Q9UHP3); assay: Biochemical DUB selectivity profiling assay: USP25; conditions: Ub-Lys-TAMRA 50 nM, buffer B; read-out: Biochemical IC50 range, USP25
T3 sequence (Q9UHP3 1-1055): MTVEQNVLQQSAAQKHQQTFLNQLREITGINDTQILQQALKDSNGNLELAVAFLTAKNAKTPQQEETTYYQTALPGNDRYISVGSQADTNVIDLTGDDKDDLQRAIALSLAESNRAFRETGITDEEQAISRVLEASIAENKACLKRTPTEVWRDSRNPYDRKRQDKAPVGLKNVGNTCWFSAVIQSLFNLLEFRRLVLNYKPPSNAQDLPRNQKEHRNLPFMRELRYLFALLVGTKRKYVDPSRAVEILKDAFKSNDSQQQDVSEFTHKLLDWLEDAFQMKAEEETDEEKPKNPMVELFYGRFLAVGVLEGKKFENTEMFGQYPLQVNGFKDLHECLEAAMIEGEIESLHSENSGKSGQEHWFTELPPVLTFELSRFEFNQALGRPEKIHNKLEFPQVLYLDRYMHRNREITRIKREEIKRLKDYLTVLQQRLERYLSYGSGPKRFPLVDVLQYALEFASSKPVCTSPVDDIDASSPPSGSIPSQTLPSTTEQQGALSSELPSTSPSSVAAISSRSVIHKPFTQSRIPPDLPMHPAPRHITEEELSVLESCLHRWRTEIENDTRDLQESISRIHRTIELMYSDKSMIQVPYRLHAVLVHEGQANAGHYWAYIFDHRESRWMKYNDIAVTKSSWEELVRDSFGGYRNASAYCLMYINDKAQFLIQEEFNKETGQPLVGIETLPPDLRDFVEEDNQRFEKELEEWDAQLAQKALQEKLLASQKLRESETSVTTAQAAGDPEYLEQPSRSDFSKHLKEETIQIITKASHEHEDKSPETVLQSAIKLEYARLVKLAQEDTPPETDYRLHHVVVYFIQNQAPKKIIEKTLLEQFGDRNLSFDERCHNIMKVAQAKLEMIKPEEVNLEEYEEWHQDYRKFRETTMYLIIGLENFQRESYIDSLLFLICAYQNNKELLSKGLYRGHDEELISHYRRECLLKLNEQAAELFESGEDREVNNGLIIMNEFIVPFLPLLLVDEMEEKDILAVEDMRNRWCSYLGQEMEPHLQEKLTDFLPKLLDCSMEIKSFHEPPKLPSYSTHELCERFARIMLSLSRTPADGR
Experimental: DUB Assay Substrate Substrate
Buffer Concentration (nM) […]
Sepharose® 4B resin (GE Healthcare).
10 kDa molecular weight cut-off (MWCO)).
Fractions containing protein
Protein concentration was […]
reaction volume of 21 μL. […]
compound (final concentration 5 nM).
IC50 values were determined
Biochemical DUB selectivity profiling assays […]
in 40 µL total reaction volume.

[5] = 1 at 1 μM, competition with ABP 2
[6] = 1 at 4 μM, competition with ABP 2
[7] = LDN at 5 μM, competition with ABP 2
[8] = LDN at 25 μM, competition with ABP 2

Sequence of DUBs and other proteins in HEK293 cells (Homo sapiens, UniProt Q93008) (Q93008 whole entry): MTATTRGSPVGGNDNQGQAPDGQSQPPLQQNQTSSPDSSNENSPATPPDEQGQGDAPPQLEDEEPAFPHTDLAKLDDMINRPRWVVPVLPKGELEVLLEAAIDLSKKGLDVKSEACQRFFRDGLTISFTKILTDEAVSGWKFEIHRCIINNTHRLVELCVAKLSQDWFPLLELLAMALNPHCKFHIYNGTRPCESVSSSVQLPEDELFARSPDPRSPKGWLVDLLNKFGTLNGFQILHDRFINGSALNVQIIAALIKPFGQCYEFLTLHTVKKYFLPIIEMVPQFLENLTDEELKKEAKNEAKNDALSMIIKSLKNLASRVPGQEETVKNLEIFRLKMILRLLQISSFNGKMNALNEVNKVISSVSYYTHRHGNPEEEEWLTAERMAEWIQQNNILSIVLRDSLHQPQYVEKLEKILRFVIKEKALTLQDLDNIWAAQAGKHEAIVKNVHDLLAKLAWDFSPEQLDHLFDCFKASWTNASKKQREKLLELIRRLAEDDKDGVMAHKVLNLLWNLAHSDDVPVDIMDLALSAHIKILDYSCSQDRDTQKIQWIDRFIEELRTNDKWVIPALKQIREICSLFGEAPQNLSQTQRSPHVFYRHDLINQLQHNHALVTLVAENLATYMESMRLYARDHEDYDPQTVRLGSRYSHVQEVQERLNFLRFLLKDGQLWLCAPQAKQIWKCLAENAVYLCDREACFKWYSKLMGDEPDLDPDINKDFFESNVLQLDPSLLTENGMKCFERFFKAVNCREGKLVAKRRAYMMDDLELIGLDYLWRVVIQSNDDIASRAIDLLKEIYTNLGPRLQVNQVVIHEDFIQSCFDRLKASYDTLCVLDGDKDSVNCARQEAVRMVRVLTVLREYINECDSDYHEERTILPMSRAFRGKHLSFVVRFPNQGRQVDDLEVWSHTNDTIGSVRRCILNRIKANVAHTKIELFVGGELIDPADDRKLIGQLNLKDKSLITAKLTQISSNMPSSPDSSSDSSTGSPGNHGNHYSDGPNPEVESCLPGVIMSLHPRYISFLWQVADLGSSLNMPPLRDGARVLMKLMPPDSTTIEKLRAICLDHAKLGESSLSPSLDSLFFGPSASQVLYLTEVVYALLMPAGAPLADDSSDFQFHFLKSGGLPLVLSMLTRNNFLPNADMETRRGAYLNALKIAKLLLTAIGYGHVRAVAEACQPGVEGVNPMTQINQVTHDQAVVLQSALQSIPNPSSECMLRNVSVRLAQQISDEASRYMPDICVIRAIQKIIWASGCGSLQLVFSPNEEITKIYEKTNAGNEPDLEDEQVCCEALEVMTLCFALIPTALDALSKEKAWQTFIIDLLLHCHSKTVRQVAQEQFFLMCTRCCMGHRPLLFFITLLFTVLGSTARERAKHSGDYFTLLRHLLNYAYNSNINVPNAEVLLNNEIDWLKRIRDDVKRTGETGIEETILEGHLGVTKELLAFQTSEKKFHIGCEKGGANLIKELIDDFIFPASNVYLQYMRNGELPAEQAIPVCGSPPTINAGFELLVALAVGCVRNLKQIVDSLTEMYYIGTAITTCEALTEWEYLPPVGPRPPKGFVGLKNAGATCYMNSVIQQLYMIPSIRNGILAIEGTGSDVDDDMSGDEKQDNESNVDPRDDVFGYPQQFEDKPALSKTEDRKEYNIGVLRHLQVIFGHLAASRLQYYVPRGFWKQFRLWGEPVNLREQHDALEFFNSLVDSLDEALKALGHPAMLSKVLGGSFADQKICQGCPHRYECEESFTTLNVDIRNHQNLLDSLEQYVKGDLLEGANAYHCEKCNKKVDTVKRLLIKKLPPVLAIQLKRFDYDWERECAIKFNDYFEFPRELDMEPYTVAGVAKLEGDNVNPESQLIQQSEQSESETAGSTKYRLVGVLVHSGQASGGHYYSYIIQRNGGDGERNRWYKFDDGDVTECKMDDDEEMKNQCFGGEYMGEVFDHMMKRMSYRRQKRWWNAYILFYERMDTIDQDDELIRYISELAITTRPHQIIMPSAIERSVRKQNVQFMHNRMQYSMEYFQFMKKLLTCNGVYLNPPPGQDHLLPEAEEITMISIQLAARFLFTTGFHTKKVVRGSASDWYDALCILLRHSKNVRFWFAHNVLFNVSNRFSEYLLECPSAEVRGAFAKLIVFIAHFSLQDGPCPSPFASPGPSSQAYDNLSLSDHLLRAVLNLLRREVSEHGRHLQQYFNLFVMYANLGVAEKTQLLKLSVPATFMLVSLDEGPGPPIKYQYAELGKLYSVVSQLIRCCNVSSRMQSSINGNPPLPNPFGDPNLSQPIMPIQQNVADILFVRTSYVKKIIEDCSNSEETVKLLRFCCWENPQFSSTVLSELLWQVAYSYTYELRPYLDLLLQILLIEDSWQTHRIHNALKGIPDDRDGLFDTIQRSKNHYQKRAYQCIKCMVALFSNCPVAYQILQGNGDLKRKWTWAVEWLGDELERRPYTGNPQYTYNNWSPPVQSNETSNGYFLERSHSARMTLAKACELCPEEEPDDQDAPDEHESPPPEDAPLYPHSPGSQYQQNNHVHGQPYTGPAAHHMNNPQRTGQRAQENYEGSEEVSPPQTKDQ
Sequence of DUBs and other proteins in HEK293 cells (Homo sapiens, UniProt Q9Y5T5) (Q9Y5T5 whole entry): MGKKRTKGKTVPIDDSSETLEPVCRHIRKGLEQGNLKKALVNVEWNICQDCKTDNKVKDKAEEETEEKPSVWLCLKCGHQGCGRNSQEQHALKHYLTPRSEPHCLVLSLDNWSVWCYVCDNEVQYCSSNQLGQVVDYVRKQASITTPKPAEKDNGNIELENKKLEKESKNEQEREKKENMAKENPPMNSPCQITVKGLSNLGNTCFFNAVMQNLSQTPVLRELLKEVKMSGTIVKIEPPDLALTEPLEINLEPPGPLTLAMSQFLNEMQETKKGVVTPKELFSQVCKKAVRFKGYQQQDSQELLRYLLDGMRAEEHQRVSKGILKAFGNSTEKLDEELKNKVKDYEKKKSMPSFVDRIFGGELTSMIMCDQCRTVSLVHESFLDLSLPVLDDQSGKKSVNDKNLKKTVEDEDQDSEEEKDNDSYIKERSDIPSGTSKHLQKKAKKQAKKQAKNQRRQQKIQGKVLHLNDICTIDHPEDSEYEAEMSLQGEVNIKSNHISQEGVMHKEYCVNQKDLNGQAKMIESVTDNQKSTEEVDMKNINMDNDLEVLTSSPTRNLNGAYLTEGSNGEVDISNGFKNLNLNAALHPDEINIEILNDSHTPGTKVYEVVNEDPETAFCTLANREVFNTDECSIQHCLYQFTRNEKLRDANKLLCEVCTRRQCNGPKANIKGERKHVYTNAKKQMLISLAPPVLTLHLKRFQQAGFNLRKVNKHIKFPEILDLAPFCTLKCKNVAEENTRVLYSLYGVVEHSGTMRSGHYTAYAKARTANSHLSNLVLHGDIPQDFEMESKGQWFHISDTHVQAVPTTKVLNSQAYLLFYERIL

Log2 reporter intensity values: USP39 [1, 5]: 1.016 and 0.9671 and 0.9953 | Log2 reporter intensity values: USP39 [1, 6]: 1.053 and 0.9437 and 0.9559 | Log2 reporter intensity values ([1]; 1_1 μM): 0.01573 and -0.03349 and -0.00527 | Log2 reporter intensity values ([1]; 1_4 μM): 0.0526 and -0.05693 and -0.04466 | Log2 reporter intensity values ([1]; 1 at 1 μM): 0.02338 and -0.04824 and -0.006739 | Log2 reporter intensity values ([1]; 1 at 4 μM): 0.0748 and -0.08363 and -0.065 | Log2 reporter intensity values: PSMD7 [2, 5]: 1.13 and 1.005 and 1.053 | Log2 reporter intensity values: PSMD7 [2, 6]: 1.07 and 1.047 and 1.231 | Log2 reporter intensity values ([2]; 1_1 μM): 0.1278 and 0.002507 and 0.05011 | Log2 reporter intensity values ([2]; 1_4 μM): 0.06753 and 0.04399 and 0.2288 | Log2 reporter intensity values ([2]; 1 at 1 μM): 0.1768 and 0.007299 and 0.07406 | Log2 reporter intensity values ([2]; 1 at 4 μM): 0.09774 and 0.06565 and 0.3003 | Log2 reporter intensity values: USP16 ([3]; 1 at 1 μM): 1.022 and 1.047 and 1.014 | Log2 reporter intensity values: USP16 ([3]; 1 at 4 μM): 1.071 and 1.22 and 1.147 | Log2 reporter intensity values ([3]; 1_1 μM): 0.01937 and 0.04439 and 0.01154 | Log2 reporter intensity values ([3]; 1_4 μM): 0.06901 and 0.2175 and 0.1444 | Log2 reporter intensity values ([3]; 1 at 1 μM): 0.03077 and 0.06568 and 0.01967 | Log2 reporter intensity values ([3]; 1 at 4 μM): 0.09923 and 0.2865 and 0.1974 | Log2 reporter intensity values: USP9X;USP9Y [4, 5]: 1.022 (2×) and 0.9739 | Log2 reporter intensity values: USP9X;USP9Y [4, 6]: 0.949 and 1.006 and 0.9815 | Log2 reporter intensity values ([4]; 1_1 μM): 0.0219 and 0.02206 and -0.02613 | Log2 reporter intensity values ([4]; 1_4 μM): -0.05104 and 0.005497 and -0.01849 | Log2 reporter intensity values ([4]; 1 at 1 μM): 0.0313 and 0.03153 and -0.03815 | Log2 reporter intensity values ([4]; 1 at 4 μM): -0.07554 and 0.007953 and -0.02689 | IC50 (USP25): > 10 µM
SMILES: N#CN1CCC[C@H]1C(=O)N1CCc2c(-c3c[nH]c4ncccc34)cccc21 [Compound 1]

Log2 reporter intensity values: USP39 ([1]; 20 nM ABP 2 alone): 0.9355 and 0.9539 and 0.9302 | Log2 reporter intensity values: PSMD7 ([2]; 20 nM ABP 2 alone): 0.8915 | Log2 reporter intensity values ([2]; 20 nM ABP 2): 0.1122 and -0.1657 and 0.02 and 0.07832 | Log2 reporter intensity values: USP9X;USP9Y ([4]; 20 nM ABP 2 alone): 0.9211 and 0.9416 and 0.9589 | IC50 (USP25): > 10 µM
SMILES: C#Cc1cnc2[nH]cc(-c3cccc4c3CCN4C(=O)[C@@H]3CCCN3C#N)c2c1 [Compound 2]
Log2 reporter intensity values ([1]; 20 nM ABP 2): -0.09621 and -0.06804 and -0.1044 and -0.06512 and -0.04668 and -0.07041 | Log2 reporter intensity values ([4]; 20 nM ABP 2): -0.08683 and -0.06047 and -0.07892 and -0.05844 and -0.04108

SMILES: CC(=O)O/N=C1\C(=O)N(Cc2cc(Cl)ccc2Cl)c2ccc(Cl)cc21 [LDN-57444, reference compound]
IC50 (USP25): > 10 µM

SMILES: CC(=O)O/N=C1\C(=O)N(Cc2cc(Cl)ccc2Cl)c2ccc(Cl)cc21 [LDN]
Log2 reporter intensity values: USP39 [1, 7]: 1.029 and 1.043 and 0.9785 | Log2 reporter intensity values: USP39 [1, 8]: 1.07 and 1.069 and 1.033 | Log2 reporter intensity values ([1]; LDN at 5 μM): 0.04123 and 0.06024 and -0.03137 | Log2 reporter intensity values ([1]; LDN at 25 μM): 0.09762 and 0.09571 and 0.04713 | Log2 reporter intensity values ([1]; LDN_5 μM): 0.02838 and 0.04203 and -0.02212 | Log2 reporter intensity values ([1]; LDN_25 μM): 0.0694 and 0.06798 and 0.0326 | Log2 reporter intensity values: PSMD7 [2, 7]: 1.218 and 1.097 and 1.111 | Log2 reporter intensity values: PSMD7 [2, 8]: 1.26 and 1.205 and 1.158 | Log2 reporter intensity values ([2]; LDN at 5 μM): 0.2849 and 0.1342 and 0.1516 | Log2 reporter intensity values ([2]; LDN at 25 μM): 0.3338 and 0.2689 and 0.2118 | Log2 reporter intensity values ([2]; LDN_5 μM): 0.2157 and 0.09493 and 0.1083 | Log2 reporter intensity values ([2]; LDN_25 μM): 0.2577 and 0.2023 and 0.1556 | Log2 reporter intensity values: USP16 ([3]; LDN at 5 μM): 1.149 and 1.181 and 1.095 | Log2 reporter intensity values: USP16 ([3]; LDN at 25 μM): 1.216 and 1.053 and 1.129 | Log2 reporter intensity values ([3]; LDN at 5 μM): 0.2004 and 0.2395 and 0.1308 | Log2 reporter intensity values ([3]; LDN at 25 μM): 0.2823 and 0.07456 and 0.1753 | Log2 reporter intensity values ([3]; LDN_5 μM): 0.1468 and 0.1784 and 0.09274 | Log2 reporter intensity values ([3]; LDN_25 μM): 0.2139 and 0.05085 and 0.127 | Log2 reporter intensity values: USP9X;USP9Y [4, 7]: 0.9588 and 0.9416 and 0.9642 | Log2 reporter intensity values: USP9X;USP9Y [4, 8]: 0.918 and 0.963 and 0.9662 | Log2 reporter intensity values ([4]; LDN at 5 μM): -0.06063 and -0.08675 and -0.05259 | Log2 reporter intensity values ([4]; LDN at 25 μM): -0.1235 and -0.05434 and -0.04956 | Log2 reporter intensity values ([4]; LDN_5 μM): -0.04118 and -0.05839 and -0.03582 | Log2 reporter intensity values ([4]; LDN_25 μM): -0.08207 and -0.03699 and -0.0338

Reference: paper PMC7366380, “Discovery of a Potent and Selective Covalent Inhibitor and Activity-Based Probe for the Deubiquitylating Enzyme UCHL1, with Antifibrotic Activity” (Journal of the American Chemical Society, 2020)
